Measured values published in patent publication US20260130933A1, “PHARMACEUTICAL COMPOSITION FOR PREVENTION OR TREATMENT OF NEPHROPATHY AND/OR DIABETES MELLITUS, COMPRISING ENAVOGLIFLOZIN” (DAEWOONG PHARMACEUTICAL CO., LTD., priority 2022, published 2026).

Test: Example 2: phase 3 trial, enavogliflozin 0.3 mg vs dapagliflozin 10 mg once a day for 24 weeks added to metformin in patients with type 2 diabetes (same efficacy, exploratory and safety endpoints)
Format: in vivo, human
Settings: for HDL-C change from baseline, ANCOVA LS mean (SE) / HDL-C change from baseline, Mean (SD) / HDL-C change from baseline, Median / HDL-C, Mean (SD) / HDL-C, Median / LDL-C change from baseline, ANCOVA LS mean (SE) / LDL-C change from baseline, Mean (SD) / LDL-C change from baseline, Median / LDL-C, Mean (SD) / LDL-C, Median / Triglycerides change from baseline, ANCOVA LS mean (SE) / Triglycerides change from baseline, Mean (SD) / Triglycerides change from baseline, Median / Triglycerides, Mean (SD) / Triglycerides, Median: mPPS1; for Diastolic blood pressure change from baseline, ANCOVA LS mean (SE) / Diastolic blood pressure change from baseline, Mean (SD) / Diastolic blood pressure change from baseline, Median / Diastolic blood pressure, Mean (SD) / Diastolic blood pressure, Median / Systolic blood pressure change from baseline, ANCOVA LS mean (SE) / Systolic blood pressure change from baseline, Mean (SD) / Systolic blood pressure change from baseline, Median / Systolic blood pressure, Mean (SD) / Systolic blood pressure, Median: mPPS2
Description: Subjects who met the inclusion/exclusion criteria were administered a placebo of the clinical trial drug under single-blind (subject blinding) conditions during a 2-week run-in period while continuing to receive metformin. […] The randomized subjects were administered two tablets of the clinical trial drug for each administration group once a day, and then visited the institution at weeks 6, 12, 18, and 24 during the 24-week administration period to conduct efficacy and safety evaluations.
• 1. Change in HbA1c at week 24 after administration of clinical trial drug compared to Visit 2 (randomization)
• 1. Change in HbA1c at each time point of weeks 6, 12, and 18 after administration of clinical trial drug compared to Visit 2 (randomization) • 2. Change in FPG at each time point of weeks 6, 12, 18, and 24 after administration of clinical trial drug compared to Visit 2 (randomization) • 3. Proportion of subjects achieving HbA1c<7% at each time point of weeks 6, 12, 18, and 24 after administration of clinical trial drug • 4. Proportion of subjects achieving HbA1c<6.5% at each time point of weeks 6, 12, 18, and 24 after administration of clinical trial drug • 5. Proportion of subjects achieving therapeutic response (HbA1c change (HbA1c at Visit 2-HbA1c at each evaluation time point)>0.5% or HbA1c<7% at each evaluation time point compared to Visit 2 (randomization)) at each time point of weeks 6, 12, 18 and 24 after administration of clinical trial drug
• 1. Change in fasting c-peptide at each time point of weeks 6, 12, 18, and 24 after administration of clinical trial drug compared to Visit 2 (randomization) • 2. Change in body weight at each time point of weeks 6, 12, 18, and 24 after administration of clinical trial drug compared to Visit 2 (randomization) • 3. Change in fasting lipid concentration (total cholesterol, LDL-C, HDL-C, and triglycerides) at each time point of weeks 6, 12, 18, and 24 after administration of clinical trial drug compared to Visit 2 (randomization) • 4. Changes in systolic or diastolic blood pressure at each time point of weeks 6, 12, 18, and 24 after administration of clinical trial drug compared to Visit 2 (randomization) • 5. Changes in β-cell function and insulin resistance measured by HOMA-β and HOMA-IR at each time point of weeks 6, 12, 18, and 24 after administration of clinical trial drug compared to Visit 2 (randomization) • 6. Changes in renal function-related indicators (UACR, UGCR) measured by UACR at each time point of weeks 6, 12, 18, and 24 after administration of clinical trial drug compared to Visit 2 (randomization) • 7. Changes in obesity-related indicators (adiponectin, leptin) at each time point of weeks 6, 12, 18, and 24 after administration of clinical trial drug compared to Visit 2 (randomization)

With `CCOc1ccc(Cc2cc([C@@H]3O[C@H](CO)[C@@H](O)[C@H](O)[C@H]3O)ccc2Cl)cc1` [Dapagliflozin, reference compound] the “Leptin change from baseline, ANCOVA LS mean (SE)” value (Week 12, PPS) was -2.70 ng/mL, the “Leptin change from baseline, Mean (SD)” value (Week 12, PPS) was -2.70 ng/mL and the “Leptin change from baseline, Median” value (Week 12, PPS) was -1.94 ng/mL. For the same compound, the “Leptin, Mean (SD)” value (Week 12, PPS) was 9.07 ng/mL, the “Leptin, Median” value (Week 12, PPS) was 6.05 ng/mL and the “UACR change from baseline, ANCOVA LS mean (SE)” value (Week 12, PPS) was -3.38 g/kg. The “UACR change from baseline, Mean (SD)” value (Week 12, PPS) was -8380 mg/kg, the “UACR change from baseline, Median” value (Week 12, PPS) was -1.80 g/kg and the “UACR, Mean (SD)” value (Week 12, PPS) was 49420 mg/kg. The “UACR, Median” value (Week 12, PPS) was 11.95 g/kg, the “UGCR change from baseline, ANCOVA LS mean (SE)” value (Week 12, PPS) was 45.14 mg/mg and the “UGCR change from baseline, Mean (SD)” value (Week 12, PPS) was 43.59 mg/mg. The “UGCR change from baseline, Median” value (Week 12, PPS) was 40.62 mg/mg, the “UGCR, Mean (SD)” value (Week 12, PPS) was 45.57 mg/mg and the “UGCR, Median” value (Week 12, PPS) was 40.89 mg/mg. For the same compound, the “HDL-C change from baseline, ANCOVA LS mean (SE)” value (Week 12) was 2.25(0.62) mg/dL, the “HDL-C change from baseline, Mean (SD)” value (Week 12) was 2.65(5.61) mg/dL and the “HDL-C change from baseline, Median” value (Week 12) was 2.00 mg/dL. For the same compound, the “HDL-C, Mean (SD)” value (Week 12) was 49.29(9.21) mg/dL, the “HDL-C, Median” value (Week 12) was 49.00 mg/dL and the “LDL-C change from baseline, ANCOVA LS mean (SE)” value (Week 12) was 0.56(1.73) mg/dL. The “LDL-C change from baseline, Mean (SD)” value (Week 12) was 1.33(16.02) mg/dL, the “LDL-C change from baseline, Median” value (Week 12) was 2.00 mg/dL and the “LDL-C, Mean (SD)” value (Week 12) was 77.54(25.39) mg/dL. For the same compound, the “LDL-C, Median” value (Week 12) was 77.00 mg/dL, the “Triglycerides change from baseline, ANCOVA LS mean (SE)” value (Week 12) was −10.10(4.92) mg/dL and the “Triglycerides change from baseline, Mean (SD)” value (Week 12) was −14.35(70.12) mg/dL. For the same compound, the “Triglycerides change from baseline, Median” value (Week 12) was -6.00 mg/dL, the “Triglycerides, Mean (SD)” value (Week 12) was 119.06(50.67) mg/dL and the “Triglycerides, Median” value (Week 12) was 104.00 mg/dL. The “Diastolic blood pressure change from baseline, ANCOVA LS mean (SE)” value (Week 12) was −4.35 mmHg, the “Diastolic blood pressure change from baseline, Mean (SD)” value (Week 12) was −4.06 mmHg and the “Diastolic blood pressure change from baseline, Median” value (Week 12) was −3.00 mmHg. The “Diastolic blood pressure, Mean (SD)” value (Week 12) was 71.86 mmHg, the “Diastolic blood pressure, Median” value (Week 12) was 72.00 mmHg and the “Systolic blood pressure change from baseline, ANCOVA LS mean (SE)” value (Week 12) was −6.12(1.07) mmHg. For the same compound, the “Systolic blood pressure change from baseline, Mean (SD)” value (Week 12) was −5.86(11.46) mmHg, the “Systolic blood pressure change from baseline, Median” value (Week 12) was −6.00 mmHg and the “Systolic blood pressure, Mean (SD)” value (Week 12) was 121.46(12.64) mmHg. The “Systolic blood pressure, Median” value (Week 12) was 123.00 mmHg, the Adiponectin change from baseline, ANCOVA LS mean (SE) (Week 18, PPS) was 1.29 µg/mL and the Adiponectin change from baseline, Mean (SD) (Week 18, PPS) was 1.28 µg/mL. For the same compound, the “Adiponectin change from baseline, Median” value (Week 18, PPS) was 0.73 ng/mL, the Adiponectin, Mean (SD) (Week 18, PPS) was 7.98 µg/mL and the Adiponectin, Median (Week 18, PPS) was 7.08 µg/mL. The “HOMA-IR change from baseline, ANCOVA LS mean (SE)” value (Week 18, PPS) was −1.47, the “HOMA-IR change from baseline, Mean (SD)” value (Week 18, PPS) was −1.61 and the “HOMA-IR change from baseline, Median” value (Week 18, PPS) was −1.07. For the same compound, the “HOMA-IR, Mean (SD)” value (Week 18, PPS) was 2.28, the “HOMA-IR, Median” value (Week 18, PPS) was 2.07 and the “HOMA-β change from baseline, ANCOVA LS mean (SE)” value (Week 18, PPS) was 13.49. The “HOMA-β change from baseline, Mean (SD)” value (Week 18, PPS) was 13.46, the “HOMA-β change from baseline, Median” value (Week 18, PPS) was 9.80 and the “HOMA-β, Mean (SD)” value (Week 18, PPS) was 58.55. For the same compound, the “HOMA-β, Median” value (Week 18, PPS) was 51.80, the “Leptin change from baseline, ANCOVA LS mean (SE)” value (Week 18, PPS) was -1.23 ng/mL and the “Leptin change from baseline, Mean (SD)” value (Week 18, PPS) was -1.20 ng/mL. The “Leptin change from baseline, Median” value (Week 18, PPS) was -1.37 ng/mL, the “Leptin, Mean (SD)” value (Week 18, PPS) was 10.72 ng/mL and the “Leptin, Median” value (Week 18, PPS) was 6.16 ng/mL. For the same compound, the “UACR change from baseline, ANCOVA LS mean (SE)” value (Week 18, PPS) was -12.95 g/kg, the “UACR change from baseline, Mean (SD)” value (Week 18, PPS) was -20540 mg/kg and the “UACR change from baseline, Median” value (Week 18, PPS) was -1.75 g/kg. The “UACR, Mean (SD)” value (Week 18, PPS) was 37260 mg/kg, the “UACR, Median” value (Week 18, PPS) was 11.60 g/kg and the “UGCR change from baseline, ANCOVA LS mean (SE)” value (Week 18, PPS) was 42.72 mg/mg. For the same compound, the “UGCR change from baseline, Mean (SD)” value (Week 18, PPS) was 41.06 mg/mg, the “UGCR change from baseline, Median” value (Week 18, PPS) was 40.72 mg/mg and the “UGCR, Mean (SD)” value (Week 18, PPS) was 43.00 mg/mg. For the same compound, the “UGCR, Median” value (Week 18, PPS) was 40.86 mg/mg, the “HDL-C change from baseline, ANCOVA LS mean (SE)” value (Week 18) was 3.08(0.67) mg/dL and the “HDL-C change from baseline, Mean (SD)” value (Week 18) was 3.17(5.82) mg/dL. For the same compound, the “HDL-C change from baseline, Median” value (Week 18) was 2.00 mg/dL, the “HDL-C, Mean (SD)” value (Week 18) was 49.93(9.16) mg/dL and the “HDL-C, Median” value (Week 18) was 49.00 mg/dL. The “LDL-C change from baseline, ANCOVA LS mean (SE)” value (Week 18) was 2.58(1.89) mg/dL, the “LDL-C change from baseline, Mean (SD)” value (Week 18) was 3.27(20.01) mg/dL and the “LDL-C change from baseline, Median” value (Week 18) was 3.00 mg/dL. The “LDL-C, Mean (SD)” value (Week 18) was 79.71(26.69) mg/dL, the “LDL-C, Median” value (Week 18) was 80.00 mg/dL and the “Triglycerides change from baseline, ANCOVA LS mean (SE)” value (Week 18) was 1.88(6.04) mg/dL. For the same compound, the “Triglycerides change from baseline, Mean (SD)” value (Week 18) was −4.10(62.62) mg/dL, the “Triglycerides change from baseline, Median” value (Week 18) was 1.00 mg/dL and the “Triglycerides, Mean (SD)” value (Week 18) was 130.88(70.92) mg/dL. For the same compound, the “Triglycerides, Median” value (Week 18) was 110.00 mg/dL, the “Diastolic blood pressure change from baseline, ANCOVA LS mean (SE)” value (Week 18) was −4.10 mmHg and the “Diastolic blood pressure change from baseline, Mean (SD)” value (Week 18) was −3.94 mmHg. The “Diastolic blood pressure change from baseline, Median” value (Week 18) was −2.50 mmHg, the “Diastolic blood pressure, Mean (SD)” value (Week 18) was 72.08 mmHg and the “Diastolic blood pressure, Median” value (Week 18) was 71.00 mmHg. The “Systolic blood pressure change from baseline, ANCOVA LS mean (SE)” value (Week 18) was −5.97(1.15) mmHg, the “Systolic blood pressure change from baseline, Mean (SD)” value (Week 18) was −5.43(12.97) mmHg and the “Systolic blood pressure change from baseline, Median” value (Week 18) was −5.00 mmHg. For the same compound, the “Systolic blood pressure, Mean (SD)” value (Week 18) was 122.27(12.91) mmHg, the “Systolic blood pressure, Median” value (Week 18) was 122.00 mmHg and the Adiponectin change from baseline, ANCOVA LS mean (SE) (Week 24, PPS) was 1.69 µg/mL. For the same compound, the Adiponectin change from baseline, Mean (SD) (Week 24, PPS) was 1.72 µg/mL, the “Adiponectin change from baseline, Median” value (Week 24, PPS) was 1.06 ng/mL and the Adiponectin, Mean (SD) (Week 24, PPS) was 8.35 µg/mL. The Adiponectin, Median (Week 24, PPS) was 7.19 µg/mL, the “HOMA-IR change from baseline, ANCOVA LS mean (SE)” value (Week 24, PPS) was −1.31 and the “HOMA-IR change from baseline, Mean (SD)” value (Week 24, PPS) was −1.47. The “HOMA-IR change from baseline, Median” value (Week 24, PPS) was −1.17 and the “HOMA-IR, Mean (SD)” value (Week 24, PPS) was 2.39.
